Measurements from US20120156333A1, “STABILIZED BETA CRYPTOXANTHIN-CONTAINING WATER AND THE USE THEREOF” (ARKRAY, INC., priority 2010, published 2012).

How the values were obtained:
Format in all cases: physicochemical
[1] = β cryptoxanthin stabilizing test, Example 1A (water from Citrus unshiu paste with additive L-ascorbic acid, stored at 40° C.); settings: 0.002 parts by mass β cryptoxanthin (paste) in water
Description: The prepared paste derived from Citrus unshiu and water were mixed. Thus, a mixed solution was prepared. The mixing was conducted so that a mass ratio between β cryptoxanthin contained in the paste and the mixed water became 1 mg:50 g (0.002 parts by mass of β cryptoxanthin with respect to 100 parts by mass of finally obtained β cryptoxanthin-containing water). Vitamin C (L-ascorbic acid) was added to the mixed solution, which was then mixed by stirring. Thus, β cryptoxanthin-containing waters were prepared. The total amounts of L-ascorbic acid in the respective β cryptoxanthin-containing waters were set to 0.005, 0.01, 0.02, 0.05, 0.1, and 0.2 parts by mass with respect to 100 parts by mass of entire β cryptoxanthin-containing water by adding vitamin C. As a blank, a β cryptoxanthin-containing water was prepared in the same manner as described above except that vitamin C (L-ascorbic acid) was not added to the mixed solution. 50 g of six types of the β cryptoxanthin-containing waters and 50 g of the f3-cryptoxanthin-containing water as a blank were filled in the respective brown bottles. Thereafter, the brown bottles were subjected to a heat sterilization treatment under the condition at 90° C. for 30 minutes, which were then stored at 40° C. Sampling was conducted on a storage start date, after one month from the storage start date, and after two months from the same. The respective amounts of β cryptoxanthin in samples were measured by HPLC as shown below. Then, assuming that the amount of β cryptoxanthin on the storage start date was 100%, residual ratios of β cryptoxanthin were determined. The samples were treated at 70° C. for 30 minutes under alkaline conditions before being subjected to HPLC. By this treatment, β cryptoxanthin in the samples was saponified and was converted to a free form. After the treatment, the samples were subjected to a liquid-liquid extraction and were then concentrated. Thus, samples for HPLC were obtained. In the measurements of the amounts of β cryptoxanthin by HPLC, a HPLC system to which a column (J'sphere ODS-M80 (product name) with 250×4.6 mm I.D, produced by YMC Co., Ltd.) had been connected was used, and absorbances at 455 nm were measured by a UV detector ([…] (product name), produced by Hitachi Ltd.). Conditions of the column were as follows. • Mobile phase: acetonitrile/tetrahydrofuran (volume ratio: 95/5) containing 0.1% acetic acid and 50 ppm of α-tocopherol • Flow rate: 1.0 mL/minute • Column temperature: 55° C.

[2] = β cryptoxanthin stabilizing test, Example 3A (water from Citrus unshiu concentrated liquid with additive L-ascorbic acid, stored at 40° C.); settings: 0.0015 parts by mass β cryptoxanthin (concentrated liquid) in water
Description: The prepared concentrated liquid derived from Citrus unshiu and water were mixed. Thus, a mixed solution was prepared. The mixing was conducted so that a mass ratio between β cryptoxanthin contained in the concentrated liquid and the mixed water became […] (0.0015 parts by mass of β cryptoxanthin with respect to 100 parts by mass of finally obtained β cryptoxanthin-containing water). Vitamin C (L-ascorbic acid) was added to the mixed solution, which was then mixed by stirring. Thus, β cryptoxanthin-containing waters were prepared. The total amounts of L-ascorbic acid in the respective β cryptoxanthin-containing waters were set to 0.005, 0.01, 0.02, 0.1, and 0.2 parts by mass with respect to 100 parts by mass of entire β cryptoxanthin-containing water by adding vitamin C. 50 g of five types of the β cryptoxanthin-containing waters were filled in the respective brown bottles. Thereafter, the brown bottles were subjected to a heat sterilization treatment under the condition at 90° C. for 30 minutes, which were then stored at 40° C. Sampling was conducted on a storage start date and after two months from the same. The respective amounts of β cryptoxanthin in samples were measured in the same manner as in Example 1A. Then, assuming that the amount of β cryptoxanthin on the storage start date was 100%, residual ratios of β cryptoxanthin were determined.

[3] = β cryptoxanthin stabilizing test, Example 1B (water from paste, varied β cryptoxanthin concentration, stored at 45° C.)
Description: The prepared paste derived from Citrus unshiu and water were mixed. Thus, β cryptoxanthin-containing waters were prepared. In the mixing, concentrations of the β cryptoxanthin were set to predetermined parts by mass with respect to 100 parts by mass of a combination of the water and components contained in the water. The predetermined parts by mass were 0.0031, 0.0044, 0.0062, 0.0086, 0.0176, and 0.0244 parts by mass. Thus, six types of β cryptoxanthin-containing waters each having a different concentration of the β cryptoxanthin were prepared. Each of the β cryptoxanthin-containing waters was sufficiently stirred. Thereafter 90 g of the resultant β cryptoxanthin-containing water was filled in an aluminum pouch, which was then sterilized under the condition at 85° C. for 30 minutes. As a comparative example, two types of β cryptoxanthin-containing waters were prepared in the same manner as described above except that the concentrations of the β cryptoxanthin were set to 0.0011 and 0.0016 parts by mass.
Six types of the β cryptoxanthin-containing waters of the example and two types of β cryptoxanthin-containing waters of the comparative example were stored at 45° C. for one month. Sampling was conducted on a storage start date and after one month from the storage start date. The respective amounts of β cryptoxanthin in samples were measured by HPLC as shown below. Then, assuming that the amount of β cryptoxanthin on the storage start date was 100%, residual ratios of β cryptoxanthin were determined.
The samples were treated at 70° C. for 30 minutes under alkaline conditions before being subjected to HPLC. By this treatment, β cryptoxanthin in the samples was saponified and was converted to a free form. After the treatment, the samples were subjected to a liquid-liquid extraction and were then concentrated. Concentrated samples thus obtained were used as samples for HPLC.
In the measurements of the amounts of β cryptoxanthin by HPLC, a HPLC system to which a column (J′sphere ODS-M80 (product name) with 250×4.6 mm I.D, produced by YMC Co., Ltd.) had been connected was used, and absorbances at 455 nm were measured by a UV detector (L-4200H (product name), produced by Hitachi Ltd.). Conditions of the column were as follows. • Mobile phase: acetonitrile/tetrahydrofuran (volume ratio: 95/5) containing 0.1% acetic acid and 50 ppm of α-tocopherol • Flow rate: 1.0 mL/minute • Column temperature: 55° C.

[4] = additive L-ascorbic acid 0 parts by mass (blank)
[5] = additive L-ascorbic acid 0.005 parts by mass
[6] = additive L-ascorbic acid 0.01 parts by mass
[7] = additive L-ascorbic acid 0.02 parts by mass
[8] = additive L-ascorbic acid 0.05 parts by mass
[9] = additive L-ascorbic acid 0.1 parts by mass
[10] = additive L-ascorbic acid 0.2 parts by mass

For CC1=C(/C=C/C(C)=C/C=C/C(C)=C/C=C/C=C(C)/C=C/C=C(C)/C=C/C2=C(C)C[C@@H](O)CC2(C)C)C(C)(C)CCC1 [β cryptoxanthin], the “Residual ratio of β cryptoxanthin Storage for one month (%)” value (“Residual ratio … for one month (%)” for short) [1, 4] was 76.9%, the “Residual ratio of β cryptoxanthin Storage for two months (%)” value (“Residual ratio … for two months (%)” for short) [1, 4] was 29.9% and the “Residual ratio … for one month (%)” value [1, 5] was 83.8%. For the same compound, the “Residual ratio … for two months (%)” value [1, 5] was 48.8%, the “Residual ratio … for one month (%)” value [1, 6] was 96.7% and the “Residual ratio … for two months (%)” value [1, 6] was 78.9%. The “Residual ratio … for one month (%)” value [1, 7] was 100%, the “Residual ratio … for two months (%)” value [1, 7] was 100% and the “Residual ratio … for one month (%)” value [1, 8] was 98.0%. The “Residual ratio … for two months (%)” value [1, 8] was 99.0%, the “Residual ratio … for one month (%)” value [1, 9] was 94.4% and the “Residual ratio … for two months (%)” value [1, 9] was 94.7%. For the same compound, the “Residual ratio … for one month (%)” value [1, 10] was 68.3%, the “Residual ratio … for two months (%)” value [1, 10] was 31.3% and the “Residual ratio … for two months (%)” value [2, 5] was 64.3%. The “Residual ratio … for two months (%)” value [2, 6] was 64.9%, the “Residual ratio … for two months (%)” value [2, 7] was 99.1% and the “Residual ratio … for two months (%)” value [2, 9] was 100%. For the same compound, the “Residual ratio … for two months (%)” value [2, 10] was 37.9%, the “Residual ratio … for one month (%)” value ([3]; Comparative Example, β cryptoxanthin 0.0011 parts by mass (paste) in water) was 52.5% and the “Residual ratio … for one month (%)” value ([3]; Comparative Example, β cryptoxanthin 0.0016 parts by mass (paste) in water) was 59.0%. For the same compound, the “Residual ratio … for one month (%)” value ([3]; Example, β cryptoxanthin 0.0031 parts by mass (paste) in water) was 84.8%, the “Residual ratio … for one month (%)” value ([3]; Example, β cryptoxanthin 0.0044 parts by mass (paste) in water) was 87.8% and the “Residual ratio … for one month (%)” value ([3]; Example, β cryptoxanthin 0.0062 parts by mass (paste) in water) was 97.0%. The “Residual ratio … for one month (%)” value ([3]; Example, β cryptoxanthin 0.0086 parts by mass (paste) in water) was 95.3%, the “Residual ratio … for one month (%)” value ([3]; Example, β cryptoxanthin 0.0176 parts by mass (paste) in water) was 93.2% and the “Residual ratio … for one month (%)” value ([3]; Example, β cryptoxanthin 0.0244 parts by mass (paste) in water) was 105.9%.
